From PubChem BioAssay (NCI)
Several values for one entry are separate records, joined by “and”; a condition that tells them apart may be missing. Equal values may be shown once.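 Five concentrations, 48 hours, 96-well plates. GI50: concentration for 50% inhibition of growth. TGI is the concentration that stops growth completely.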

Tests used:
Assay in all cases: NCI-60 cell line screen, 48 h
[1] = system: HOP-92 NSCLC
[2] = system: RXF 393 renal
[3] = system: K-562 leukemia
[4] = system: SN12C renal
[5] = system: U251 CNS
[6] = system: LOX IMVI melanoma
[7] = system: SK-MEL-28 melanoma
[8] = system: SF-539 CNS

SMILES	GI50 [1]	TGI [1]	GI50 [2]	TGI [2]	GI50 [3]	TGI [3]	GI50 [4]	TGI [4]	GI50 [5]	TGI [5]	GI50 [6]	TGI [6]	GI50 [7]	TGI [7]	GI50 [8]	TGI [8]
O=S(=O)(O)ONC1=NCCN1	> 100 µM	> 100 µM	66.7 µM	> 100 µM	> 100 µM	> 100 µM	> 100 µM	> 100 µM	> 100 µM	> 100 µM	76.6 µM	> 100 µM	> 100 µM	> 100 µM	> 100 µM	> 100 µM
NS(=O)(=O)c1ccc(NC(=O)Nc2ccccc2F)cc1	–	> 100 µM	–	> 100 µM	–	> 100 µM	–	> 100 µM	–	> 100 µM	–	> 100 µM	–	> 100 µM	–	> 100 µM
CCc1nc(-n2c(-c3ccccc3)nc3ccccc3c2=O)nc(N)c1-c1ccc(Cl)cc1	13.4 µM	> 100 µM	> 100 µM	> 100 µM	3.06 µM	> 100 µM	15.6 µM	> 100 µM	9.19 µM	> 100 µM	3.94 µM	> 100 µM	> 100 µM	> 100 µM	23.7 µM	> 100 µM
Oc1ccc(Cl)cc1-c1cc(-c2ccc(F)cc2)n[nH]1	–	–	2.83 µM	7.82 µM	2.8 µM	27.1 µM	2.61 µM	13.3 µM	2.1 µM	5 µM	1.51 µM	3.55 µM	8.35 µM	> 100 µM	2.1 µM	4.51 µM
N#Cc1c2c(c(-c3cccs3)n(C3OC(CO)C(O)C(O)C3O)c1=S)CCc1ccccc1-2 (centres undefined)	3.35 µM	> 88.8 µM	–	> 100 µM	–	> 100 µM	–	> 100 µM	–	> 100 µM	–	> 100 µM	–	> 100 µM	–	> 100 µM
CCCCCc1c(C)[nH]c(/C=C2\N=C(c3ccc[nH]3)C=C2OCc2ccccc2)c1C	0.00832 µM and 0.0187 µM	0.0562 µM and 0.0647 µM	0.0697 µM and 0.0473 µM	0.768 µM and 0.374 µM	0.0372 µM and 0.0448 µM	–	0.0703 µM and 0.0458 µM	1.43 µM and 0.268 µM	0.0289 µM and 0.0239 µM	0.195 µM and 0.122 µM	0.0195 µM and 0.0117 µM	0.0458 µM and 0.0377 µM	0.105 µM and 0.0459 µM	1.05 µM and 0.267 µM	0.0668 µM and 0.0492 µM	1.08 µM and 0.263 µM
C[N+](C)([O-])CCCNc1ccnc2cccc([N+](=O)[O-])c12	–	–	–	79.1 µM	–	> 100 µM	–	> 100 µM	–	> 100 µM	–	> 100 µM	–	> 100 µM	–	53.1 µM
COc1cc([C@@H]2c3cc4c(cc3C[C@H]3COC(=O)[C@@H]32)OCO4)cc2c1OCO2	–	–	–	> 100 µM	–	> 40 µM	–	> 100 µM	–	> 100 µM	–	> 68.2 µM	–	> 100 µM	–	< 0.01 µM
CC(=O)N1CCN(CCOc2ccc(C3CCN(C4=Nn5c(nnc5C(F)(F)F)CC4)CC3)cc2)CC1	7.64 µM	> 100 µM	19.4 µM	> 66 µM	8.25 µM	> 100 µM	14.5 µM	> 100 µM	47.9 µM	> 100 µM	11.4 µM	> 100 µM	21.4 µM	> 100 µM	22.5 µM	> 100 µM
O=C1c2ccn(CCCCN3CCC(O)CC3)c2C(=O)c2c1c(O)c1ccccc1c2O	8.95 µM	41.1 µM	–	–	1.77 µM	> 100 µM	15.2 µM	34.9 µM	15.4 µM	43.4 µM	8.04 µM	–	13.3 µM	> 41 µM	43.8 µM	> 100 µM
CCOC(=O)Cc1csc(NC(=O)COC(=O)c2ccc(OC)cc2)n1	7.58 µM	24.3 µM	> 70.8 µM	> 100 µM	1.16 µM	> 60.9 µM	> 100 µM	> 100 µM	43.3 µM	> 100 µM	11.1 µM	> 37.5 µM	> 100 µM	> 100 µM	19.3 µM	37.7 µM
O=C(O)C(=O)CBr	> 33.2 µM and 19.1 µM	> 49.9 µM and 34 µM	64 µM and 17 µM	> 100 µM and 31 µM	> 22.2 µM and 23.8 µM	> 68.2 µM and 59.1 µM	> 46.2 µM and 19.1 µM	> 64 µM and 34.5 µM	> 100 µM and 21.6 µM	> 100 µM and 42.9 µM	> 44.4 µM and 17.3 µM	> 63.1 µM and 31.8 µM	> 42.4 µM and 16.6 µM	> 62.8 µM and 32.2 µM	> 41.1 µM and 16.8 µM	> 56.3 µM and 31.5 µM
O=C(CCl)Nc1cc(O)c2c(c1)C(=O)c1cccc(O)c1C2=O	1.79 µM	3.63 µM	1.72 µM	3.5 µM	0.353 µM	4.22 µM	0.68 µM	1.98 µM	1.63 µM	3.18 µM	0.166 µM	0.623 µM	2.79 µM	8.95 µM	2.29 µM	6.6 µM
O=C(c1ccccc1)C1C(C(=O)c2ccccc2)C(c2ccccc2)N(c2ccccc2)C1c1ccccc1 (centres undefined)	–	> 100 µM	–	> 100 µM	–	> 100 µM	–	> 100 µM	–	> 100 µM	–	> 100 µM	–	> 100 µM	–	> 100 µM
O=C(Nc1ccc(I)cc1F)c1cc(I)ccc1O	0.179 µM	0.777 µM	0.779 µM	3.24 µM	0.434 µM	> 100 µM	0.511 µM	–	0.661 µM	> 100 µM	0.38 µM	1.67 µM	0.435 µM	2.84 µM	0.651 µM	16.2 µM
CO[C@H](C(=O)O)[C@@H]1Cc2cc3cc(OC4CC(OC5CC(O)C(O)C(C)O5)C(O)C(C)O4)c(C)c(O)c3c(O)c2C(=O)[C@H]1OC1CC(OC2CC(OC3CC(C)(O)C(O)C(C)O3)C(O)C(C)O2)C(O)C(C)O1 (some centres undefined)	0.0736 µM	22.6 µM	0.101 µM	0.436 µM	0.303 µM	> 32.5 µM	0.179 µM	> 32.5 µM	0.212 µM	> 32.5 µM	0.114 µM	1.48 µM	0.191 µM	1.99 µM	0.164 µM	2.02 µM
c1ccc2nc(OCCN3CC3)ccc2c1	1.9 µM	9.44 µM	14.6 µM	32.5 µM	3.06 µM	24 µM	11.8 µM	29.5 µM	5.2 µM	18.9 µM	4.05 µM	> 100 µM	14.5 µM	29.2 µM	21.5 µM	47.1 µM
